Tests used:
FaDu = test: Cytotoxicity against human FADU cells after 96 hrs by sulforhodamine-B assay; assay type: functional, cell-based
SW-1736 = test: Cytotoxicity against human SW1736 cells after 96 hrs by sulforhodamine-B assay; assay type: functional, cell-based
MCF7 = test: Cytotoxicity against human MCF7 cells after 96 hrs by sulforhodamine-B assay; assay type: functional, cell-based
A2780 = test: Cytotoxicity against human A2780 cells after 96 hrs by sulforhodamine-B assay; assay type: functional, cell-based
NIH3T3 = test: Cytotoxicity against mouse NIH/3T3 cells after 96 hrs by sulforhodamine-B assay; assay type: cell-based
HT-29 = test: Cytotoxicity against human HT-29 cells after 96 hrs by sulforhodamine-B assay; assay type: functional, cell-based
[1] = Selectivity index, ratio of EC50 for mouse NIH/3T3 cells to EC50 for human MCF7 cells; assay type: toxicity; details: NIH/3T3 cells and MCF7 cells, read-out: Ratio EC50
[2] = Homo sapiens, FaDu, 96 h, read-out: EC50
[3] = Homo sapiens, SW-1736, 96 h, read-out: EC50
[4] = Homo sapiens, MCF7, 96 h, read-out: EC50
[5] = Homo sapiens, A2780, 96 h, read-out: EC50
[6] = Mus musculus, NIH3T3, 96 h, read-out: EC50
[7] = Homo sapiens, HT-29, 96 h, read-out: EC50

| Compound | EC50 (FaDu; [2]) [µM] | EC50 (SW-1736; [3]) [µM] | EC50 (MCF7; [4]) [µM] | EC50 (A2780; [5]) [µM] | EC50 (NIH3T3; [6]) [µM] | EC50 (HT-29; [7]) [µM] | EC50 (FaDu; fadu) | EC50 (SW-1736; sw-1736) | EC50 (MCF7; mcf7) | EC50 (A2780; a2780) | EC50 (NIH3T3; nih3t3) | EC50 (HT-29; ht-29) | selectivity ratio [1] |
| --- | --- | --- | --- | --- | --- | --- | --- | --- | --- | --- | --- | --- | --- |
| CC(C)c1cc2c(cc1O)[C@@]1(C)CCC[C@@](C)(CNC(=O)c3ccc(O)cc3)[C@@H]1CC2 | > 30 | > 30 | > 30 | > 30 | > 30 | > 30 | – | – | – | – | – | – | – |
| CC(C)c1ccc2c(c1)CC[C@H]1[C@](C)(CNC(=O)c3ccc(O)cc3)CCC[C@]21C | 14.1 | 13 | 8 | 8.7 | 6.9 | 8.5 | – | – | – | – | – | – | – |
| COc1ccc(C(=O)NC[C@]2(C)CCC[C@]3(C)c4cc(OC(C)=O)c(C(C)C)cc4CC[C@@H]23)cc1 | – | – | – | – | – | – | Nd(Insoluble) | Nd(Insoluble) | Nd(Insoluble) | Nd(Insoluble) | Nd(Insoluble) | Nd(Insoluble) | – |
| CC(C)c1ccc2c(c1)CC[C@H]1[C@](C)(CNC(=O)CCCC[C@H]3SCC4NC(=O)NC43)CCC[C@]21C (some centres undefined) | 24.5 | > 30 | 11.6 | 18.6 | 15.7 | 15.5 | – | – | – | – | – | – | – |
| CC(C)c1ccc2c(c1)CC[C@H]1[C@](C)(CNC(=O)c3ccncc3)CCC[C@]21C | 14.4 | 14.2 | 7.9 | 9.8 | 16.9 | 10.7 | – | – | – | – | – | – | – |
| COc1ccc(C(=O)NC[C@]2(C)CCC[C@]3(C)c4ccc(C(C)C)cc4CC[C@@H]23)cc1 | 17.3 | 11.2 | 4.5 | 9.1 | 22.8 | 10.4 | – | – | – | – | – | – | 8.8 |
| Cc1ccc(C(=O)NC[C@]2(C)CCC[C@]3(C)c4cc(O)c(C(C)C)cc4CC[C@@H]23)cc1 | 12.2 | 7 | 8.5 | 10 | 16.8 | 17.2 | – | – | – | – | – | – | – |
| CC(=O)Oc1ccc(C(=O)NC[C@]2(C)CCC[C@]3(C)c4cc(OC(C)=O)c(C(C)C)cc4CC[C@@H]23)cc1 | 20.2 | 17.2 | 10.5 | 17.9 | 21.4 | 11.2 | – | – | – | – | – | – | – |
| C=C(C)[C@@H]1CC[C@]2(C(=O)O)CC[C@]3(C)[C@H](CC[C@@H]4[C@@]5(C)CC[C@H](O)C(C)(C)[C@@H]5CC[C@]43C)[C@@H]12 [BETULINIC ACID] | 10.7 | 14.8 | 10.6 | 9.7 | 12.9 | 16 | – | – | – | – | – | – | – |
| CC(C)c1cc2c(cc1O)[C@@]1(C)CCC[C@@](C)(CNC(=O)c3ccc(Cl)cc3)[C@@H]1CC2 | 21.9 | 10.2 | 5 | 6.6 | 16 | 10.5 | – | – | – | – | – | – | – |
| CC(=O)Oc1cc2c(cc1C(C)C)CC[C@H]1[C@](C)(CNC(=O)c3ccc(C)cc3)CCC[C@]21C | 12.8 | 10.7 | 11.5 | 19.4 | > 30 | 26.7 | – | – | – | – | – | – | – |
| CC(=O)Oc1cc2c(cc1C(C)C)CC[C@H]1[C@](C)(CN)CCC[C@]21C | 13.1 | 18.3 | 10.7 | 20 | > 30 | 10.1 | – | – | – | – | – | – | – |
| CC(=O)Oc1cc2c(cc1C(C)C)CC[C@H]1[C@](C)(CNC(=O)c3ccncc3)CCC[C@]21C | 12.4 | 12.8 | 5.7 | 14.4 | 29.5 | 15.3 | – | – | – | – | – | – | – |
| COc1ccc(C(=O)NC[C@]2(C)CCC[C@]3(C)c4cc(O)c(C(C)C)cc4CC[C@@H]23)cc1 | 20 | 16.1 | 11.7 | 13.2 | 23.2 | 13.5 | – | – | – | – | – | – | – |
| CC(C)c1cc2c(cc1OC(=O)c1ccccc1)[C@@]1(C)CCC[C@@](C)(CNC(=O)c3ccccc3)[C@@H]1CC2 | > 30 | > 30 | > 30 | > 30 | > 30 | > 30 | – | – | – | – | – | – | – |
| Cc1ccc(C(=O)NC[C@]2(C)CCC[C@]3(C)c4ccc(C(C)C)cc4CC[C@@H]23)cc1 | 18.9 | 14.2 | 10.4 | 12.5 | 13.5 | 22.8 | – | – | – | – | – | – | – |
| CC(C)c1cc2c(cc1O)[C@@]1(C)CCC[C@@](C)(CNC(=O)CCCC[C@H]3SCC4NC(=O)NC43)[C@@H]1CC2 (some centres undefined) | > 30 | > 30 | > 30 | > 30 | > 30 | > 30 | – | – | – | – | – | – | – |
| CC(=O)Oc1cc2c(cc1C(C)C)CC[C@H]1[C@](C)(CNC(=O)CCCC[C@H]3SCC4NC(=O)NC43)CCC[C@]21C (some centres undefined) | > 30 | > 30 | > 30 | > 30 | > 30 | > 30 | – | – | – | – | – | – | – |
| CC(C)c1ccc2c(c1)CC[C@H]1[C@](C)(CNC(=O)c3ccccc3)CCC[C@]21C | > 30 | > 30 | > 30 | > 30 | > 30 | > 30 | – | – | – | – | – | – | – |
| CC(C)c1ccc2c(c1)CC[C@H]1[C@](C)(CNC(=O)c3ccc(Cl)cc3)CCC[C@]21C | > 30 | > 30 | > 30 | > 30 | > 30 | > 30 | – | – | – | – | – | – | – |
| CC(=O)Oc1cc2c(cc1C(C)C)CC[C@H]1[C@](C)(CNC(=O)c3ccccc3)CCC[C@]21C | 13.4 | 13.5 | 4.5 | 8.1 | 17.3 | 9 | – | – | – | – | – | – | – |
| CC(C)c1ccc2c(c1)CC[C@H]1[C@](C)(CN)CCC[C@]21C | 3.9 | 4.2 | 3 | 3.8 | 2.4 | 2.1 | – | – | – | – | – | – | 0.8 |
| CC(C)c1cc2c(cc1O)[C@@]1(C)CCC[C@@](C)(CN)[C@@H]1CC2 | 11.5 | 13.6 | 8.9 | 17.3 | 22 | 9.5 | – | – | – | – | – | – | – |
| CC(C)c1cc2c(cc1O)[C@@]1(C)CCC[C@@](C)(CNC(=O)c3ccccc3)[C@@H]1CC2 | 14.8 | 11.5 | 4.8 | 12.5 | 18.1 | 16.2 | – | – | – | – | – | – | – |
| CC(C)c1cc2c(cc1O)[C@@]1(C)CCC[C@@](C)(CNC(=O)c3ccncc3)[C@@H]1CC2 | 18.8 | 27.3 | 4.3 | 12.9 | 24.2 | 19 | – | – | – | – | – | – | 6.2 |
| CC(=O)Oc1cc2c(cc1C(C)C)CC[C@H]1[C@](C)(CNC(=O)c3ccc(Cl)cc3)CCC[C@]21C | 14.4 | 15.3 | 6.1 | 5 | > 30 | 11.7 | – | – | – | – | – | – | – |
